Source: patent US20200163984A1, “USE OF ISOVALERYL SPIRAMYCIN I, II AND/OR III IN MANUFACTURING MEDICAMENT FOR TREATING AND/OR PREVENTING TUMOR, AND MEDICAMENT” (SHENYANG FUYANG PHARMACEUTICAL TECHNOLOGY CO., LTD., priority 2017, published 2020)
In brackets after ≈: the same amount, converted by molar mass. Like-named read-outs stand apart in the source and are kept apart here.

How the values were obtained:
[1] = system: human bladder cancer cell T-24; details: T-24, MTT
Excerpt: (§1) The purpose of the assay is to evaluate the in vitro cell proliferation inhibition or cytotoxic activity of a tested sample.
(§2) Human breast cancer cells MCF-7 and MDA-MB-231, human hepatoma cells HepG2, human non-small cell lung cancer cells A549, human large cell lung cancer cells H460 and H1299, human renal clear cell adenocarcinoma cell 786-0, human renal cell adenocarcinoma cell 769-P, human glioma cell U251, human glioblastoma cell A172, human tissue lymphoma cell U937, human cervical cancer cell HeLa, human prostate cancer cell PC3, human pancreatic cancer cell PANC-1, human esophageal cancer cell TE-1, human gastric adenocarcinoma cell SGC7901, human colon cancer cell HT-29, human promyelocytic leukemia cell HL-60, human thyroid cancer cell TPC-1, and human bladder cancer cell T-24.
(§3) The inhibition rate of the medicament on tumor cell growth is calculated according to the following formula:
(§4) Tumor cell growth inhibition rate (%)=[A492 (negative control)−A492 (dosing group)]/A492 (negative control)×100%
(§5) And the half-inhibitory concentration (IC50) of the sample is determined therefrom.

[2] = system: human thyroid cancer cell TPC-1; details: TPC-1, MTT
Excerpt: as §1, §2, §3, §4, §5

[3] = system: transplanted tumor of human glioblastoma cell A172; details: for Tumor Volume (mm3) (d 1): d1
Method in brief: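 Nude mice bearing subcutaneous A172 xenografts (cells in matrigel) randomized at ≥100 mm^3, 6 per group; isovaleryl spiramycin I, II or III at 25, 50 or 100 mg/kg given intragastrically for 30 days, temozolomide as comparator. Endpoints: RTV-based T/C (%) and tumor-weight inhibition at sacrifice.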

[4] = system: transplanted tumor of HL60 cells; test: HL-60 transplanted tumor in nude mice; details: for Tumor Volume (mm3) (d30): d 30
Protocol: HL-60 cells in a logarithmic growth phase were taken and subjected to a trypan blue exclusion experiment showing that the cell viability was more than 95%, then the cells were subjected to trypsinization, centrifugation, and supernatant removal. Then cell concentration was adjusted to 1×10^7/ml with matrigel, then each nude mouse was inoculated subcutaneously with 0.2 ml of cells at its right armpit and recorded as the first day of inoculation. When the tumor grows to be greater than or equal to 100 mm^3, the mice were randomly divided into 11 groups with 6 mice in each group: isovaleryl spiramycin I groups with doses of 25, 50 and 100 mg/kg, isovaleryl spiramycin II groups with doses of 25, 50 and 100 mg/kg, and isovaleryl spiramycin III groups with doses of 25, 50 and 100 mg/kg. Each group was continuously administered intragastrically for 30 days with a dose of 20 ml/kg. The mice were sacrificed the next day after drug withdrawal and the indicators were tested. The long diameter and short diameter of the tumor, and the weight of each mouse were recorded every 3 days from drug administration to nude mouse sacrifice.
The body weight of the nude mice and the long diameter (a) and short diameter (b) of the transplanted tumor were measured every 3 days, and the tumor volume (v), relative tumor volume (RTV) and relative tumor proliferation rate (T/C) are calculated respectively according to the following formulas, wherein V=a×b^2/2; RTV=V/V0 (V0 is the tumor volume before administration, V is the tumor volume before sacrifice), and T/C (%)=treatment group RTV/model control group RTV×100%.
Each mouse was weighed and sacrificed. After the tumor was completely stripped off from the body of the mouse, the non-tumor tissues such as blood stains and fat were removed to weigh the tumor and calculate the tumor growth inhibition rate. The average tumor weight of each group of mice is used as an indicator of efficacy. Tumor growth inhibition rate (%)=(1−the average tumor weight of the treatment group/the average tumor weight of the model group)×100%.

[5] = A172, high dose (100 mg/kg in method) i.g. 30 days
[6] = A172, low dose (25 mg/kg in method) i.g. 30 days
[7] = A172, medium dose (50 mg/kg in method) i.g. 30 days
[8] = HL-60, high dose (100 mg/kg in method) i.g. 30 days
[9] = HL-60, low dose (25 mg/kg in method) i.g. 30 days
[10] = HL-60, medium dose (50 mg/kg in method) i.g. 30 days

In the case of `CCC(=O)O[C@@H]1CC(=O)O[C@H](C)C/C=C/C=C/[C@H](O[C@H]2CC[C@H](N(C)C)[C@@H](C)O2)[C@H](C)C[C@H](CC=O)[C@H](O[C@@H]2O[C@H](C)[C@@H](O[C@H]3C[C@@](C)(O)[C@@H](OC(=O)CC(C)C)[C@H](C)O3)[C@H](N(C)C)[C@H]2O)[C@H]1OC` [Isovaleryl spiramycin III, isovaleryl spiramycin III], the IC50 [1] is reported as 31.23 ± 1.47 µg/mL (≈ 31.8 µM), the IC50 [2] is reported as 29.72 ± 4.02 µg/mL (≈ 30.2 µM) and the “Relative Tumor Proliferation Rate (T/C)” value [3, 5] is reported as 40.08%. The “tumor growth inhibition rate” value [3, 5] was 59.19%, the “Relative Tumor Proliferation Rate (T/C)” value [3, 6] was 66.45% and the “tumor growth inhibition rate” value [3, 6] was 15.35%. For the same compound, the “tumor volume and relative tumor volume compared with the model group” value ([3]; A172, low, medium and high doses, P<0.05) was “significantly lower”, the “Relative Tumor Proliferation Rate (T/C)” value [3, 7] was 52.89% and the “tumor growth inhibition rate” value [3, 7] was 32.54%. The “Inhibition Rate (%)” value ([3]; A172 nude mice, 12.5 mg/kg) was 15.35%, the “Relative Tumor Proliferation Rate (T/C)” value ([3]; A172 nude mice, 12.5 mg/kg) was 66.45% and the “Relative Tumor Volume (RTV)” value ([3]; A172 nude mice, 12.5 mg/kg) was 13.47 ± 1.67. For the same compound, the “Tumor Weight” value ([3]; A172 nude mice, 12.5 mg/kg) was 1.18 ± 0.11 g, the “Tumor Volume (mm3) (d 1)” value ([3]; A172 nude mice, 12.5 mg/kg) was 121.75 ± 9.98 mm3 and the “Tumor Volume (mm3) (d30)” value ([3]; A172 nude mice, 12.5 mg/kg) was 1305.51 ± 212.02 mm3. For the same compound, the “Inhibition Rate (%)” value ([3]; A172 nude mice, 25 mg/kg) was 32.54%, the “Relative Tumor Proliferation Rate (T/C)” value ([3]; A172 nude mice, 25 mg/kg) was 52.89% and the “Relative Tumor Volume (RTV)” value ([3]; A172 nude mice, 25 mg/kg) was 12.63 ± 1.27. For the same compound, the “Tumor Weight” value ([3]; A172 nude mice, 25 mg/kg) was 0.94 ± 0.12 g, the “Tumor Volume (mm3) (d 1)” value ([3]; A172 nude mice, 25 mg/kg) was 118.81 ± 8.97 mm3 and the “Tumor Volume (mm3) (d30)” value ([3]; A172 nude mice, 25 mg/kg) was 1047.77 ± 165.77 mm3. The “Inhibition Rate (%)” value ([3]; A172 nude mice, 50 mg/kg) was 59.19%, the “Relative Tumor Proliferation Rate (T/C)” value ([3]; A172 nude mice, 50 mg/kg) was 40.08% and the “Relative Tumor Volume (RTV)” value ([3]; A172 nude mice, 50 mg/kg) was 10.96 ± 0.82. The “Tumor Weight” value ([3]; A172 nude mice, 50 mg/kg) was 0.57 ± 0.05 g, the “Tumor Volume (mm3) (d 1)” value ([3]; A172 nude mice, 50 mg/kg) was 118.44 ± 6.21 mm3 and the “Tumor Volume (mm3) (d30)” value ([3]; A172 nude mice, 50 mg/kg) was 795.73 ± 174.84 mm3. For the same compound, the “mouse weight compared with the model group” value ([3]; mouse, in vivo) was “no significant changes”, the “Body Weight (g) (d1)” value ([3]; mouse, in vivo, 12.5 mg/kg) was 21.54 ± 0.36 g and the “Body Weight (g) (d30)” value ([3]; mouse, in vivo, 12.5 mg/kg) was 20.64 ± 0.54 g. For the same compound, the “Body Weight (g) (d1)” value ([3]; mouse, in vivo, 25 mg/kg) was 20.98 ± 0.47 g, the “Body Weight (g) (d30)” value ([3]; mouse, in vivo, 25 mg/kg) was 21.54 ± 0.72 g and the “Body Weight (g) (d1)” value ([3]; mouse, in vivo, 50 mg/kg) was 21.59 ± 0.32 g. The “Body Weight (g) (d30)” value ([3]; mouse, in vivo, 50 mg/kg) was 20.67 ± 0.56 g, the “Relative Tumor Proliferation Rate (T/C)” value [4, 8] was 39.87% and the “tumor growth inhibition rate” value [4, 8] was 55.05%. For the same compound, the “Relative Tumor Proliferation Rate (T/C)” value [4, 9] was 76.09%, the “tumor growth inhibition rate” value [4, 9] was 17.10% and the “tumor volume and relative tumor volume compared with the model group” value ([4]; HL-60, low, medium and high doses, P<0.05) was “significantly lower”. For the same compound, the “Relative Tumor Proliferation Rate (T/C)” value [4, 10] was 61.90%, the “tumor growth inhibition rate” value [4, 10] was 29.92% and the “Inhibition Rate (%)” value ([4]; dose 25 mg/kg) was 17.10%. For the same compound, the “Relative Tumor Proliferation Rate (T/C)” value ([4]; dose 25 mg/kg) was 76.09%, the “Relative Tumor Volume (RTV)” value ([4]; dose 25 mg/kg) was 8.56 ± 1.82 and the “Tumor Weight” value ([4]; dose 25 mg/kg) was 1.88 ± 0.25 g. The “Tumor Volume (mm3) (d 1)” value ([4]; dose 25 mg/kg) was 184.12 ± 22.53 mm3, the “Tumor Volume (mm3) (d30)” value ([4]; dose 25 mg/kg) was 1543.27 ± 190.73 mm3 and the “Inhibition Rate (%)” value ([4]; dose 50 mg/kg) was 29.92%. For the same compound, the “Relative Tumor Proliferation Rate (T/C)” value ([4]; dose 50 mg/kg) was 61.90%, the “Relative Tumor Volume (RTV)” value ([4]; dose 50 mg/kg) was 6.96 ± 2.25 and the “Tumor Weight” value ([4]; dose 50 mg/kg) was 1.59 ± 0.45 g. The “Tumor Volume (mm3) (d 1)” value ([4]; dose 50 mg/kg) was 189.31 ± 24.59 mm3, the “Tumor Volume (mm3) (d30)” value ([4]; dose 50 mg/kg) was 1308.87 ± 436.30 mm3 and the “Inhibition Rate (%)” value ([4]; dose 100 mg/kg) was 55.05%. The “Relative Tumor Proliferation Rate (T/C)” value ([4]; dose 100 mg/kg) was 39.87%, the “Relative Tumor Volume (RTV)” value ([4]; dose 100 mg/kg) was 4.48 ± 2.94 and the “Tumor Weight” value ([4]; dose 100 mg/kg) was 1.01 ± 0.41 g. The “Tumor Volume (mm3) (d 1)” value ([4]; dose 100 mg/kg) was 188.01 ± 27.66 mm3, the “Tumor Volume (mm3) (d30)” value ([4]; dose 100 mg/kg) was 789.65 ± 404.78 mm3 and the “mouse weight compared with the model group” value ([4]; mouse, in vivo) was “no significant changes”. For the same compound, the “Body Weight (g) (d1)” value ([4]; mouse, in vivo, 25 mg/kg) was 20.60 ± 1.57 g, the “Body Weight (g) (d30)” value ([4]; mouse, in vivo, 25 mg/kg) was 20.67 ± 1.51 g and the “Body Weight (g) (d1)” value ([4]; mouse, in vivo, 50 mg/kg) was 20.82 ± 1.42 g. For the same compound, the “Body Weight (g) (d30)” value ([4]; mouse, in vivo, 50 mg/kg) was 20.59 ± 1.36 g, the “Body Weight (g) (d1)” value ([4]; mouse, in vivo, 100 mg/kg) was 20.2l ± l .87 g and the “Body Weight (g) (d30)” value ([4]; mouse, in vivo, 100 mg/kg) was 20.25 ± 1.22 g.
